Key:
Experiment in all cases: In vitro combination study with tazemetostat, cell proliferation (Cell Titer Glo)
[1] = tested on: NCI-H23; details: 7 days tazemetostat pre-treatment, 6 days co-treatment with second agent
Method: (§1) Initial proliferation studies were performed to determine the IC50 of tazemetostat in each cell line. For the screen, tazemetostat was used at concentrations bracketed around the IC50 value. If 50% inhibitory concentration was not reached then tazemetostat was tested starting at 10 μM.
(§2) In order to study the effect of dual combination of tazemetostat and a second agent on cell proliferation, cells in log-linear phase growth rate were pre-treated with various concentrations of tazemetostat or DMSO for 7 days in flasks, plated in 384-well plates in the absence of compounds and co-treated on day 8 with tazemetostat or DMSO and the second agent serially diluted for additional 6 days (as depicted in FIG. 1). On day 15, plates were developed for endpoint analysis using Cell Titer Glo to measure ATP content, which was used as an indicator of cell viability. DMSO concentration was kept constant throughout the assay at 0.15% v/v.
(§3) All cell lines were obtained from American Type Culture Collection (ATCC; Rockville, Md.). […] A427, Calu-3, Calu-6 cell lines were cultured in EMEM+10% Fetal bovine serum (FBS)+1% v/v Penicillin/Streptomycin (P/S).

[2] = tested on: NCI-H838; details: 7 days tazemetostat pre-treatment, 6 days co-treatment with second agent
Method: as §1, §2
(§4) NCI-H1573 was cultured in DMEM: F12 Medium containing the following components: 0.02 mg/ml insulin, 0.01 mg/ml transferrin, 25 nM sodium selenite, 50 nM Hydrocortisone, 1 ng/ml Epidermal Growth Factor, 0.01 mM ethanolamine, 0.01 mM phosphorylethanolamine, 100 pM triiodothyronine, 0.5% (w/v) bovine serum albumin, 0.5 mM sodium pyruvate, 4.5 mM L-glutamine and 1% v/v Pen/Strep.

[3] = tested on: HCC827; details: 7 days tazemetostat pre-treatment, 6 days co-treatment with second agent
[4] = tested on: NCI-H1993; details: 7 days tazemetostat pre-treatment, 6 days co-treatment with second agent
Method: as §1, §2

[5] = tested on: NCI-H1793; details: 7 days tazemetostat pre-treatment, 6 days co-treatment with second agent
Method: as §1, §2, §4

[6] = tested on: NCI-H1573; details: 7 days tazemetostat pre-treatment, 6 days co-treatment with second agent
Method: as §1, §2, §4

[7] = tested on: Calu-3; details: 7 days tazemetostat pre-treatment, 6 days co-treatment with second agent
[8] = tested on: NCI-H1299; details: 7 days tazemetostat pre-treatment, 6 days co-treatment with second agent
[9] = tested on: NCI-H522; details: 7 days tazemetostat pre-treatment, 6 days co-treatment with second agent
[10] = tested on: NCI-H460; details: 7 days tazemetostat pre-treatment, 6 days co-treatment with second agent
Method: as §1, §2, §3

[11] = tested on: NCI-H2122; details: 7 days tazemetostat pre-treatment, 6 days co-treatment with second agent
Method: as §1, §2, §3

[12] = tested on: NCI-H2030; details: 7 days tazemetostat pre-treatment, 6 days co-treatment with second agent
[13] = tested on: NCI-H661; details: 7 days tazemetostat pre-treatment, 6 days co-treatment with second agent
Method: as §1, §2, §3

[14] = tested on: Calu-6; details: 7 days tazemetostat pre-treatment, 6 days co-treatment with second agent
Method: as §1, §2

[15] = tested on: NCI-H2110; details: 7 days tazemetostat pre-treatment, 6 days co-treatment with second agent
Method: as §1, §2

[16] = tested on: A427; details: A427; 7 days tazemetostat pre-treatment, 6 days co-treatment with second agent
Method: as §1, §2, §3

[17] = tested on: NCI-H1703; details: 7 days tazemetostat pre-treatment, 6 days co-treatment with second agent
[18] = tested on: A549; details: 7 days tazemetostat pre-treatment, 6 days co-treatment with second agent
Method: as §1, §2

SMILES	combinatorial effect with tazemetostat (Loewe volume class) [1]	combinatorial effect with tazemetostat (Loewe volume class) [2]	combinatorial effect with tazemetostat (Loewe volume class) [3]	combinatorial effect with tazemetostat (Loewe volume class) [4]	combinatorial effect with tazemetostat (Loewe volume class) [5]	combinatorial effect with tazemetostat (Loewe volume class) [6]	combinatorial effect with tazemetostat (Loewe volume class) [7]	combinatorial effect with tazemetostat (Loewe volume class) [8]	combinatorial effect with tazemetostat (Loewe volume class) [9]	combinatorial effect with tazemetostat (Loewe volume class) [10]	combinatorial effect with tazemetostat (Loewe volume class) [11]	combinatorial effect with tazemetostat (Loewe volume class) [12]	combinatorial effect with tazemetostat (Loewe volume class) [13]	combinatorial effect with tazemetostat (Loewe volume class) [14]	combinatorial effect with tazemetostat (Loewe volume class) [15]	combinatorial effect with tazemetostat (Loewe volume class) [16]	combinatorial effect with tazemetostat (Loewe volume class) [17]	combinatorial effect with tazemetostat (Loewe volume class) [18]
N.N.[Cl][Pt][Cl] [Cisplatin, cisplatin]	Add. (A value between −1 and 1 denoted “additivity”)	Add. (A value between −1 and 1 denoted “additivity”)	Add. (A value between −1 and 1 denoted “additivity”)	Syn. (Loewe volumes greater than 1 denoted “synergy”)	No eff.	Add. (A value between −1 and 1 denoted “additivity”)	Syn. (Loewe volumes greater than 1 denoted “synergy”)	No eff.	Anta. (volumes <−1 denoted “antagonism”)	Add. (A value between −1 and 1 denoted “additivity”)	Anta. (volumes <−1 denoted “antagonism”)	Syn. (Loewe volumes greater than 1 denoted “synergy”)	Syn. (Loewe volumes greater than 1 denoted “synergy”)	Add. (A value between −1 and 1 denoted “additivity”)	Add. (A value between −1 and 1 denoted “additivity”)	Syn. (Loewe volumes greater than 1 denoted “synergy”)	No eff.	Syn. (Loewe volumes greater than 1 denoted “synergy”)
CC(=O)O[C@@]12CO[C@@H]1C[C@H](O)[C@@]1(C)C(=O)[C@H](O)C3=C(C)[C@@H](OC(=O)[C@H](O)[C@@H](NC(=O)OC(C)(C)C)c4ccccc4)C[C@@](O)([C@@H](OC(=O)c4ccccc4)[C@H]21)C3(C)C [Docetaxel, docetaxel]	Add. (A value between −1 and 1 denoted “additivity”)	Add. (A value between −1 and 1 denoted “additivity”)	Add. (A value between −1 and 1 denoted “additivity”)	Add. (A value between −1 and 1 denoted “additivity”)	Syn. (Loewe volumes greater than 1 denoted “synergy”)	Add. (A value between −1 and 1 denoted “additivity”)	Syn. (Loewe volumes greater than 1 denoted “synergy”)	Syn. (Loewe volumes greater than 1 denoted “synergy”)	Add. (A value between −1 and 1 denoted “additivity”)	Syn. (Loewe volumes greater than 1 denoted “synergy”)	Add. (A value between −1 and 1 denoted “additivity”)	Syn. (Loewe volumes greater than 1 denoted “synergy”)	Syn. (Loewe volumes greater than 1 denoted “synergy”)	Add. (A value between −1 and 1 denoted “additivity”)	Add. (A value between −1 and 1 denoted “additivity”)	Syn. (Loewe volumes greater than 1 denoted “synergy”)	Add. (A value between −1 and 1 denoted “additivity”)	Add. (A value between −1 and 1 denoted “additivity”)
Nc1ccn([C@@H]2O[C@H](CO)[C@@H](O)C2(F)F)c(=O)n1 [Gemcitabine, gemcitabine]	Add. (A value between −1 and 1 denoted “additivity”)	Add. (A value between −1 and 1 denoted “additivity”)	Add. (A value between −1 and 1 denoted “additivity”)	Add. (A value between −1 and 1 denoted “additivity”)	Add. (A value between −1 and 1 denoted “additivity”)	Add. (A value between −1 and 1 denoted “additivity”)	Add. (A value between −1 and 1 denoted “additivity”)	Add. (A value between −1 and 1 denoted “additivity”)	Anta. (volumes <−1 denoted “antagonism”)	Add. (A value between −1 and 1 denoted “additivity”)	Add. (A value between −1 and 1 denoted “additivity”)	Add. (A value between −1 and 1 denoted “additivity”)	Syn. (Loewe volumes greater than 1 denoted “synergy”)	Add. (A value between −1 and 1 denoted “additivity”)	Anta. (volumes <−1 denoted “antagonism”)	Syn. (Loewe volumes greater than 1 denoted “synergy”)	Add. (A value between −1 and 1 denoted “additivity”)	Add. (A value between −1 and 1 denoted “additivity”)
C=CCn1c(=O)c2cnc(Nc3ccc(N4CCN(C)CC4)cc3)nc2n1-c1cccc(C(C)(C)O)n1 [MK-1775]	Syn. (Loewe volumes greater than 1 denoted “synergy”)	Add. (A value between −1 and 1 denoted “additivity”)	Add. (A value between −1 and 1 denoted “additivity”)	Add. (A value between −1 and 1 denoted “additivity”)	Syn. (Loewe volumes greater than 1 denoted “synergy”)	Syn. (Loewe volumes greater than 1 denoted “synergy”)	Add. (A value between −1 and 1 denoted “additivity”)	Add. (A value between −1 and 1 denoted “additivity”)	Syn. (Loewe volumes greater than 1 denoted “synergy”)	Add. (A value between −1 and 1 denoted “additivity”)	Add. (A value between −1 and 1 denoted “additivity”)	Syn. (Loewe volumes greater than 1 denoted “synergy”)	Syn. (Loewe volumes greater than 1 denoted “synergy”)	Syn. (Loewe volumes greater than 1 denoted “synergy”)	Add. (A value between −1 and 1 denoted “additivity”)	Syn. (Loewe volumes greater than 1 denoted “synergy”)	Syn. (Loewe volumes greater than 1 denoted “synergy”)	Add. (A value between −1 and 1 denoted “additivity”)

Source: US11452727B2, “Combination therapy for treating cancer” (Epizyme, Inc., priority 2017, dated 2022)
